Series [1] is described as follows: Cell viability measured by CellTiter-Glo assay in Vero cells at MOI 0.05 after 72hr. To be noted: chlorocebus sabaeus.
Series [2] can be described thus: Selectivity index for antiviral vs cytotoxic activity in Vero cells (CC50/IC50). As to conditions: monkey, Vero cells.
Series [3] deals with SARS-CoV-2. The experiment in a line: microbe, parasite or virus in culture. To be noted: Severe acute respiratory syndrome coronavirus 2, Vero, 24 h. The series is classed as functional, organism-based, Chlorocebus sabaeus.
Description: Antiviral activity against SARS-CoV-2 (viral titer) measured by plaque assay in Vero cells at MOI 0.0125 after 24 hr

The values below come from ChEMBL document CHEMBL4303084, “Identification of antiviral drug candidates against SARS-CoV-2 from FDA-approved drugs” (2020).

SMILES strings stand for the structures. Starred links: 1 amine or outer side, 2 acyl side, 3 side chain; linkers in the order of their positions; H or OH if unused. Positions of bridges follow the written chain, without caps; N, C: chain ends. Non-standard residues stand in square brackets, D forms with d. Residues, ends and D or L forms follow the SMILES beside them. *: point of attachment. pTerphenylCO(4''-OnC5H11) = CCCCCOc1ccc(-c2ccc(-c3ccc(C(=O)*)cc3)cc2)cc1; Orn(4R-OH,5R-OH) = O=C([C@H](C[C@@H](O)[C@@H](O)N[*:3])N[*:1])[*:2]; hTyr(3S-OH,4S-OH) = N[C@H](C(=O)O)[C@H](O)[C@@H](O)c1ccc(O)cc1; Pro(3S-OH,4S-Me) = C[C@H]1CN[C@H](C(=O)O)[C@H]1O; Hyp = O=C(O)[C@@H]1C[C@@H](O)CN1

For orientation: CC50 means the concentration that lowers cell viability or growth by half. By IC50 is commonly meant the midpoint of a concentration-inhibition curve. A lower IC50 goes with greater potency. In the case of `CC1(C)C=Cc2c(c3c(c4c(=O)c(-c5ccc(O)cc5)coc24)OC(C)(C)CC3)O1`, the CC50 at 72 h in series [1] (Vero cells) worked out at 9.89 µM. For the same compound, the selectivity ratio in series [2] was 3.07. Further, the IC50 in series [3] was 3.22 µM.

As for `CCC(CC)COC(=O)[C@H](C)N[P@](=O)(OC[C@H]1O[C@@](C#N)(c2ccc3c(N)ncnn23)[C@H](O)[C@@H]1O)Oc1ccccc1`, in series [1] (Vero cells), the CC50 at 72 h was above 25 µM.

On to `CCN1CCN(Cc2ccc(Nc3ncc(F)c(-c4cc(F)c5nc(C)n(C(C)C)c5c4)n3)nc2)CC1` [ABEMACICLIB], for which the CC50 at 72 h in series [1] (Vero cells) was above 50 µM. In series [3], this compound registered a half-inhibitory concentration (IC50) of 6.62 µM.

As to `CCN(CC)Cc1cc(Nc2ccnc3cc(Cl)ccc23)ccc1O` [AMODIAQUINE], in series [1] (Vero cells), the CC50 at 72 h is above 50 µM. This compound yielded an IC50 in series [3] of 5.15 µM.

In turn, `CCCCCOc1ccc(-c2ccc(-c3ccc(C(=O)N[C@H]4C[C@@H](O)[C@@H](O)NC(=O)[C@@H]5[C@@H](O)[C@@H](C)CN5C(=O)[C@H]([C@@H](C)O)NC(=O)[C@H]([C@H](O)[C@@H](O)c5ccc(O)cc5)NC(=O)[C@@H]5C[C@@H](O)CN5C(=O)[C@H]([C@@H](C)O)NC4=O)cc3)cc2)cc1` [ANIDULAFUNGIN] ({pTerphenylCO(4''-OnC5H11)}-[Orn(4R-OH,5R-OH)]T[Hyp][hTyr(3S-OH,4S-OH)]T[Pro(3S-OH,4S-Me)]; lactam 1-C) registered a CC50 at 72 h in series [1] (Vero cells) above 50 µM. For the same compound, the selectivity ratio in series [2] was 10.8. The IC50 in series [3] worked out at 4.64 µM.

In the case of `Cc1c(-c2ccc(O)cc2)n(Cc2ccc(OCCN3CCCCCC3)cc2)c2ccc(O)cc12` [BAZEDOXIFENE], the CC50 at 72 h in series [1] (Vero cells) amounted to 15 µM.

Consider `COc1cc2c3cc1Oc1c(OC)c(OC)cc4c1[C@@H](Cc1ccc(O)c(c1)Oc1ccc(cc1)C[C@@H]3N(C)CC2)N(C)CC4` [BERBAMINE], for which the cytotoxic concentration (CC50) at 72 h in series [1] (Vero cells) was above 50 µM. The selectivity ratio in series [2] worked out at 6.35. This compound also came in with an IC50 in series [3] of 7.87 µM.

As to `CN(C)C(=O)COC(=O)Cc1ccc(OC(=O)c2ccc(NC(=N)N)cc2)cc1` [CAMOSTAT], the cytotoxic concentration (CC50) at 72 h in series [1] (Vero cells) is above 50 µM. The same compound returned an IC50 in series [3] above 50 µM.

`COc1ccc2cc1Oc1ccc(cc1)C[C@H]1c3c(cc4c(c3Oc3cc5c(cc3OC)CCN(C)[C@@H]5C2)OCO4)CCN1C` [CEPHARANTHINE] registered a CC50 at 72 h in series [1] (Vero cells) above 50 µM. The selectivity ratio in series [2] worked out at 11.2. Also, the IC50 in series [3] stood at 4.47 µM.

In series [1] (Vero cells), `Cc1cc(Nc2ncc(Cl)c(Nc3ccccc3S(=O)(=O)C(C)C)n2)c(OC(C)C)cc1C1CCNCC1` [CERITINIB] yielded a cytotoxic concentration (CC50) at 72 h of 6.84 µM. In series [2], the selectivity ratio is 2.39. Further, in series [3], the half-inhibitory concentration (IC50) was 2.86 µM.

Compound `CCN(CC)CCCC(C)Nc1ccnc2cc(Cl)ccc12` (stereo not drawn) [CHLOROQUINE] had a 50% cytotoxic concentration (CC50) at 72 h in series [1] (Vero cells) above 150 µM.

For `CC(C)C(=O)OCC(=O)[C@@]12O[C@H](C3CCCCC3)O[C@@H]1C[C@H]1[C@@H]3CCC4=CC(=O)C=C[C@]4(C)[C@H]3[C@@H](O)C[C@@]12C` [CICLESONIDE], in series [1] (Vero cells), the CC50 at 72 h was above 50 µM. Besides, the selectivity ratio in series [2] was 11.6. In addition, half-maximal inhibition in series [3] (IC50) required 4.33 µM.

In series [1] (vero), `CC(C)(C)c1ccc(C(=O)CCCN2CCC(OC(c3ccccc3)c3ccccc3)CC2)cc1` [EBASTINE] came in with a CC50 at 72 h of 15.4 µM.

Turning to `CC1=NN(c2ccc(C)c(C)c2)C(=O)/C1=N\Nc1cccc(-c2cccc(C(=O)O)c2)c1O` [ELTROMBOPAG], in series [1] (Vero cells), the CC50 at 72 h was above 50 µM. In series [3], inhibition was half-maximal at 8.27 µM (IC50).

`CN(C)C(=O)C(CCN1CCC(O)(c2ccc(Cl)cc2)CC1)(c1ccccc1)c1ccccc1` [LOPERAMIDE] showed a cytotoxic concentration (CC50) at 72 h in series [1] (Vero cells) of 29.3 µM.

Consider `Cc1cccc(C)c1OCC(=O)N[C@@H](Cc1ccccc1)[C@@H](O)C[C@H](Cc1ccccc1)NC(=O)[C@H](C(C)C)N1CCCNC1=O` [LOPINAVIR], for which, in series [1] (Vero cells), the 50% cytotoxic concentration (CC50) at 72 h was above 50 µM. This compound came in with an IC50 in series [3] of 9.12 µM.

In turn, `O=C(Nc1ccc([N+](=O)[O-])cc1Cl)c1cc(Cl)ccc1O` [NICLOSAMIDE] returned a CC50 at 72 h in series [1] (Vero cells) above 50 µM.

Take `O=C(Nc1cc(Cl)cc(Cl)c1O)c1c(O)c(Cl)cc(Cl)c1Cl` [OXYCLOZANIDE]: the CC50 at 72 h in series [1] (Vero cells) is above 50 µM. Besides, it took 3.71 µM to reach half-maximal inhibition in series [3] (IC50).

`Nc1ccc(/N=N/c2ccccc2)c(N)n1` [PHENAZOPYRIDINE]: in series [1] (Vero cells), the half-maximal cytotoxic concentration (CC50) at 72 h is above 50 µM. In series [3], the half-maximal inhibitory concentration (IC50) was 28 µM.
